Tested on: naïve rats

## CN1CC[C@]23c4c5ccc(O)c4O[C@H]2[C@@H](O)C=C[C@H]3[C@H]1C5 [morphine]
Morphine ED20 dose 2.8 μmol/kg s.c. alone (FIG. 1)
  percent of the maximal pain relief effect: 20%
Morphine single bolus 10 μmol/kg s.c., at one hour, naïve rats (FIG. 1)
  pain relief from a noxious thermal stimulus using the tail flick test: near maximal pain relief
s.c., naïve rats
  ED20 of morphine (antinociception, tail flick): ~2.8 µmol/kg
Single s.c. bolus administered alone: 2 at 0.04 nmol/kg, morphine at 2.8 μmol/kg
  peak levels of antinociception, % of the maximum possible effect: 21 % NPE

From patent US20090143417A1, “METHODS OF TREATING PAIN” (The University of Queensland, priority 2004, published 2009)
